Assay results: PMC8286840, “Identifying SARS-CoV-2 antiviral compounds by screening for small molecule inhibitors of Nsp3 papain-like protease” (Biochemical Journal, 2021)
Structures can show the parent of a compound that is named as a salt. Where two headings read alike, the source gives them in different places. Where a SMILES comes first, the peptide text is derived from it. Where no end group is shown, it is not given here. [ ]: non-standard residue; d: D form. The star is where a group is joined. Dolaproine = CO[C@@H]([C@@H]1CCCN1)[C@@H](C)C(=O)O; Hexanoyl(6-maleimido) = O=C1C=CC(=O)N1CCCCCC(=O)*; Dil = CC[C@H](C)[C@H](NC)[C@@H](CC(=O)O)OC; X2 = C[C@@H](N*)[C@@H](O)c1ccccc1; NMeV = CN[C@H](C(=O)O)C(C)C

Experiments:
[1] = target: T1, SARS-CoV-2 PLpro (nsp3 1564–1878) (Severe acute respiratory syndrome coronavirus 2, UniProt P0DTD1); assay: biochemical; design: FRET-quenched peptide (Pro3) cleavage by PLpro, 10 min pre-incubation, slope over 20 min, normalised to no-compound control; conditions: low concentration screen, read-out: % of control remaining
[2] = target: T1, SARS-CoV-2 PLpro (nsp3 1564–1878); assay: biochemical; design: FRET-quenched peptide (Pro3) cleavage by PLpro, 10 min pre-incubation, slope over 20 min, normalised to no-compound control; conditions: high concentration screen, read-out: % of control remaining

N[C@@H](CCCC(=O)O)C(=O)O [L-2-aminoadipic acid]
remaining activity at 1.25 µM ([1]; Well no.=52): 97.1%
remaining activity at 3.75 µM ([2]; Well no.=52): 97.4%

C#CCN[C@@H]1CCc2ccccc21 [TVP1022]
remaining activity at 1.25 µM ([1]; Well no.=5527): 101%
remaining activity at 3.75 µM ([2]; Well no.=5527): 112%

COc1ccccc1N1CCN(CC(O)COc2cccc3ccccc23)CC1 (stereo not drawn) [Naftopidil dihydrochloride]
remaining activity at 1.25 µM ([1]; Well no.=1084): 96.1%
remaining activity at 3.75 µM ([2]; Well no.=1084): 95.6%

Cn1c(N2CCCCS2(=O)=O)nc(C(=O)NCc2ccc(F)cc2)c(O)c1=O [BMS-707035]
remaining activity at 1.25 µM ([1]; Well no.=5193): 105%
remaining activity at 3.75 µM ([2]; Well no.=5193): 106%

Cc1cc(Cn2c(=O)n(Cc3cnc(C)s3)c(=O)c3cc(S(=O)(=O)NC4(C)CC4)ccc32)n(C)n1 [PDD 00017273]
remaining activity at 1.25 µM ([1]; Well no.=8182): 105%
remaining activity at 3.75 µM ([2]; Well no.=8182): 98.5%

RPPGFSPFR [Bradykinin]
remaining activity at 1.25 µM ([1]; Well no.=8439): 98.7%
remaining activity at 3.75 µM ([2]; Well no.=8439): 95.2%

C[C@@H](O[C@H]1OCCN(Cc2n[nH]c(=O)[nH]2)[C@H]1c1ccc(F)cc1)c1cc(C(F)(F)F)cc(C(F)(F)F)c1 [Aprepitant]
remaining activity at 1.25 µM ([1]; Well no.=2244): 98.3%
remaining activity at 1.25 µM ([1]; Well no.=6703): 102%
remaining activity at 3.75 µM ([2]; Well no.=2244): 99.9%
remaining activity at 3.75 µM ([2]; Well no.=6703): 97.7%

O=C(O)CCCC[C@@H]1SC[C@@H]2NC(=O)N[C@@H]21 [Biotin (Vitamin B7)]
remaining activity at 1.25 µM ([1]; Well no.=5359): 98.1%
remaining activity at 3.75 µM ([2]; Well no.=5359): 95.3%

CC(C)C[C@@H](C(=O)O)N(C)C(=O)OCC1c2ccccc2-c2ccccc21 [Fmoc-N-Me-Leu-OH]
remaining activity at 1.25 µM ([1]; Well no.=7972): 92.7%
remaining activity at 3.75 µM ([2]; Well no.=7972): 94.1%

COc1ccccc1N1CCN(CCN(C(=O)C2CCCCC2)c2ccccn2)CC1 [WAY-100635 maleate]
remaining activity at 1.25 µM ([1]; Well no.=1292): 107%
remaining activity at 3.75 µM ([2]; Well no.=1292): 107%

NC(=O)c1nnn(Cc2cc(Cl)c(C(=O)c3ccc(Cl)cc3)c(Cl)c2)c1N [Carboxyamidotriazole]
remaining activity at 1.25 µM ([1]; Well no.=5819): 94.7%
remaining activity at 3.75 µM ([2]; Well no.=5819): 89.8%

CN(C)c1ncnc2c1ncn2[C@@H]1O[C@H](CO)[C@@H](O)[C@H]1O [N6,N6-Dimethyladenosine]
remaining activity at 1.25 µM ([1]; Well no.=7854): 97.9%
remaining activity at 3.75 µM ([2]; Well no.=7854): 102%

Cc1c(O)c(=O)ccn1C [Deferiprone]
remaining activity at 1.25 µM ([1]; Well no.=5130): 97.3%
remaining activity at 3.75 µM ([2]; Well no.=5130): 98.7%

CCc1cccc(CC)c1NC(=O)N1Cc2[nH]nc(NC(=O)c3ccc(N4CCN(C)CC4)cc3)c2C1 [PHA-680632]
remaining activity at 1.25 µM ([1]; Well no.=4865): 97.9%
remaining activity at 3.75 µM ([2]; Well no.=4865): 101%

O=C(O)C(O)Cc1ccccc1 (racemic) [DL-3-Phenyllactic acid]
remaining activity at 1.25 µM ([1]; Well no.=7171): 102%
remaining activity at 3.75 µM ([2]; Well no.=7171): 99.8%

OC[C@H]1O[C@@H](Oc2cc(O)cc(/C=C/c3ccc(O[C@@H]4O[C@H](CO)[C@@H](O)[C@H](O)[C@H]4O)cc3O)c2)[C@H](O)[C@@H](O)[C@@H]1O [Mulberroside A]
remaining activity at 1.25 µM ([1]; Well no.=6340): 93%
remaining activity at 3.75 µM ([2]; Well no.=6340): 90.9%

CC1(C)S[C@@H]2[C@H](NC(=O)[C@H](NC(=O)N3CCN(S(C)(=O)=O)C3=O)c3ccccc3)C(=O)N2[C@H]1C(=O)O [Mezlocillin (sodium)]
remaining activity at 1.25 µM ([1]; Well no.=7790): 99.7%
remaining activity at 3.75 µM ([2]; Well no.=7790): 102%

O=c1c(O)c(-c2ccc(O)c(O)c2)oc2cc(O)cc(O)c12 [Quercetin]
remaining activity at 1.25 µM ([1]; Well no.=5716): 91.5%
remaining activity at 3.75 µM ([2]; Well no.=5716): 96%

COc1cc(OC)c(NC(=O)Nc2cc(C)on2)cc1Cl [PNU-120596]
remaining activity at 1.25 µM ([1]; Well no.=4964): 98.4%
remaining activity at 3.75 µM ([2]; Well no.=4964): 92.3%

O=c1[nH]c2ccccc2n1C1CCN(Cc2ccc(-c3[nH]c4cc5ncnc5cc4nc3-c3ccccc3)cc2)CC1 [Akt-I-1,2]
remaining activity at 1.25 µM ([1]; Well no.=2755): 101%
remaining activity at 3.75 µM ([2]; Well no.=2755): 98.5%

COc1ccc(-c2cc(=S)ss2)cc1 [Anethole trithione]
remaining activity at 1.25 µM ([1]; Well no.=4132): 93.9%
remaining activity at 3.75 µM ([2]; Well no.=4132): 96.6%

Cn1cc(/C=C2\C(=O)Nc3ccc(S(N)(=O)=O)cc32)c2ccccc21 [Syk Inhibitor]
remaining activity at 1.25 µM ([1]; Well no.=2595): 96.8%
remaining activity at 3.75 µM ([2]; Well no.=2595): 96.7%

CCCCC/C=C\C[C@@H]1O[C@H]1/C=C/C(O)C/C=C\CCCC(=O)O (stereo partly drawn) [Hepoxilin A3]
remaining activity at 1.25 µM ([1]; Well no.=4339): 107%
remaining activity at 3.75 µM ([2]; Well no.=4339): 106%

COC(=O)Nc1ccc(-c2nc(N3CCOCC3)c3cnn(C4CCN(C(=O)OC)CC4)c3n2)cc1 [WYE-354]
remaining activity at 1.25 µM ([1]; Well no.=4769): 101%
remaining activity at 3.75 µM ([2]; Well no.=4769): 103%

O=C(Nc1ccccc1-c1cn2c(CN3CCNCC3)csc2n1)c1cnc2ccccc2n1 [SRT1720]
remaining activity at 1.25 µM ([1]; Well no.=4673): 100%
remaining activity at 3.75 µM ([2]; Well no.=4673): 98.8%

CCOC(=O)[C@H](CCc1ccccc1)N[C@@H](C)C(=O)N1CCC[C@H]1C(=O)O [Enalapril (maleate)]
remaining activity at 1.25 µM ([1]; Well no.=7638): 93.9%
remaining activity at 3.75 µM ([2]; Well no.=7638): 94.6%

CC[C@H](C)[C@@H]([C@@H](CC(=O)N1CCC[C@H]1[C@H](OC)[C@@H](C)C(=O)N[C@H](C)[C@@H](O)c1ccccc1)OC)N(C)C(=O)[C@@H](NC(=O)[C@H](C(C)C)N(C)C(=O)CCCCCN1C(=O)C=CC1=O)C(C)C [Mc-MMAE] ({Hexanoyl(6-maleimido)}-[NMeV]V[Dil][Dolaproine]-X2)
remaining activity at 1.25 µM ([1]; Well no.=8552): 93.6%
remaining activity at 3.75 µM ([2]; Well no.=8552): 98.9%

CNCC(=O)c1ccc(O)c(O)c1 [Adrenalone HCl]
remaining activity at 1.25 µM ([1]; Well no.=5034): 94.7%
remaining activity at 3.75 µM ([2]; Well no.=5034): 94.4%

Nc1nc(F)nc2c1ncn2[C@@H]1O[C@H](CO)[C@@H](O)[C@@H]1O [Fludarabine]
remaining activity at 1.25 µM ([1]; Well no.=7962): 89.2%
remaining activity at 3.75 µM ([2]; Well no.=7962): 88.2%

O=C1NC(=O)c2c1c1c3ccccc3[nH]c1n1cncc21 [Isogranulatimide]
remaining activity at 1.25 µM ([1]; Well no.=2504): 94.2%
remaining activity at 3.75 µM ([2]; Well no.=2504): 90.7%

N=C(N)NC(=O)c1nc(Cl)c(N)nc1N [Amiloride HCl dihydrate]
remaining activity at 1.25 µM ([1]; Well no.=5290): 101%
remaining activity at 3.75 µM ([2]; Well no.=5290): 100%

Clc1ccc2nsnc2c1NC1=NCCN1 [Tizanidine.HCl]
remaining activity at 1.25 µM ([1]; Well no.=1563): 98.4%
remaining activity at 3.75 µM ([2]; Well no.=1563): 98%

COc1cc(N)cn[n+]1-c1ccccc1 [Amezinium (methylsulfate)]
remaining activity at 1.25 µM ([1]; Well no.=6567): 106%
remaining activity at 3.75 µM ([2]; Well no.=6567): 104%

O=C(C[S+]([O-])Cc1ccco1)NC/C=C\COc1cc(CN2CCCCC2)ccn1 (stereo not drawn) [Lafutidine]
remaining activity at 1.25 µM ([1]; Well no.=4722): 93.3%
remaining activity at 1.25 µM ([1]; Well no.=7581): 90.1%
remaining activity at 3.75 µM ([2]; Well no.=4722): 95%
remaining activity at 3.75 µM ([2]; Well no.=7581): 90.4%
